Active and inactive are the calls of the source.
Key:
Cytochrome P450 3A4 = Cytochrome P450 3A4 (Homo sapiens, UniProt P08684); details: Potency;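 further: confirmatory qHTS run detecting inhibitors and substrates of CYP3A4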
[1] = biological target: Eukaryotic translation initiation factor 4E (Mus musculus, UniProt P63073); assay: eIF4E–eIF4G protein interaction inhibitors, dose response, biochemical, TR-FRET (AID 855); format: functional;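 further: potency for disrupting eIF4E binding to eIF4GI seen as loss of FRET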
[2] = biological target: T1, Small ubiquitin-related modifier 1 (Homo sapiens, UniProt P63165); assay: inhibitors of SUMO1 peptide binding, dose response, biochemical, fluorescence polarization, uHTS hits (AID 624382); format: functional; details: read-out: IC50_Mean
[3] = biological target: T1, Small ubiquitin-related modifier 1; assay: inhibitors of SUMO1 partner interactions, dose response, biochemical, FRET (AID 624383); format: functional; details: read-out: IC50_Mean
[4] = biological target: NAD-dependent protein deacylase sirtuin-5, mitochondrial (Homo sapiens, UniProt Q9NXA8); assay: SIRT5 desuccinylase inhibitors, dose response, biochemical, fluorescence imaging, cherry-pick, set 5 (AID 720591);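 further: desuccinylation of succinyl peptide AMC substrate read as fluorescence after trypsin release; potency of inhibitors that lower fluorescence and may act on trypsin instead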
Chain of NAD-dependent protein deacylase sirtuin-5, mitochondrial (Q9NXA8 whole entry): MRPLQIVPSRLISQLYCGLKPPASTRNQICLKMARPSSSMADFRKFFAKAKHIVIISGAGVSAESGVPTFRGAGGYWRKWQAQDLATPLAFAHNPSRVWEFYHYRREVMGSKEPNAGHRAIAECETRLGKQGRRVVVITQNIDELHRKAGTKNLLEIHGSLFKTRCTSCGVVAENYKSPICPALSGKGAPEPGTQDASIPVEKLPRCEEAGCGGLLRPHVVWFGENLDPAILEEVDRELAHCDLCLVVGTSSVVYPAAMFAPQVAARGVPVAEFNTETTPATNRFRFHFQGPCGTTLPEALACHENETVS

BJ [5] = assay: cytotoxicity toward BJ-TERT fibroblasts, dose response, cell-based, RAS-independent, luminescence (AID 1933); format: functional; details: Homo sapiens
BJ [6] = assay: cells; format: functional, cell-based; details: Homo sapiens
[7] = biological target: Luciferin 4-monooxygenase (Photinus pyralis, UniProt P08659); assay: firefly luciferase enzyme inhibitors, dose response, biochemical, luminescence (AID 1891)
[8] = Luminescence Cell-Based Dose Confirmation HTS to Identify Inhibitors of Platelet Dense Granule Release. [Related pubchem assays: 1663 (Primary HTS), 1678 (Summary of Project)]; format: functional
BJ [9] = assay: cytotoxicity toward BJ-TERT-LT-ST fibroblasts, dose response, cell-based, RAS-independent, luminescence (AID 1935); format: functional; details: Homo sapiens;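 further: BJ fibroblasts immortalized with TERT plus LT and ST oncogenes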
[10] = cytotoxicity toward DRD oncogenic fibroblasts, dose response, cell-based, non-viral oncogenic, luminescence (AID 1934); format: functional; details: Homo sapiens
[11] = biological target: Peroxisome proliferator-activated receptor gamma/Nuclear receptor coactivator 2 (Homo sapiens, UniProt P37231); format: functional;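 further: agonist potency for raising coactivator recruitment to the receptor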
[12] = biological target: Peroxisome proliferator-activated receptor gamma/Nuclear receptor coactivator 1 (Homo sapiens, UniProt P37231); format: functional;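 further: agonist potency as compounds enhance coactivator SRC-1 recruitment to PPARgamma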
Chain of Peroxisome proliferator-activated receptor gamma/Nuclear receptor coactivator 1 (P37231 whole entry): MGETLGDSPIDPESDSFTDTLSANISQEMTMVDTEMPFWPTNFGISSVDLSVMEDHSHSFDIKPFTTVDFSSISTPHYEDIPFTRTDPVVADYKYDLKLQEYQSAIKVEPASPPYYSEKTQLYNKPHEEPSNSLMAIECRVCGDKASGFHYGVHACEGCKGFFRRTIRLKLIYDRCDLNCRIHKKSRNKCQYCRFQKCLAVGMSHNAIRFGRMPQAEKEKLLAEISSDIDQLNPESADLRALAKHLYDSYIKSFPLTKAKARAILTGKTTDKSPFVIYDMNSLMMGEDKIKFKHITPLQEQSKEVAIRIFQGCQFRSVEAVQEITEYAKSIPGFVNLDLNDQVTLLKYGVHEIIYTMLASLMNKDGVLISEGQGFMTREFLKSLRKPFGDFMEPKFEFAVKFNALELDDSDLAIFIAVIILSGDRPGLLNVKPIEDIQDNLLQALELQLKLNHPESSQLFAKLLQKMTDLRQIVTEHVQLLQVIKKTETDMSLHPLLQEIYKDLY
Chain of Peroxisome proliferator-activated receptor gamma/Nuclear receptor coactivator 1 (Q15788 whole entry, further chain): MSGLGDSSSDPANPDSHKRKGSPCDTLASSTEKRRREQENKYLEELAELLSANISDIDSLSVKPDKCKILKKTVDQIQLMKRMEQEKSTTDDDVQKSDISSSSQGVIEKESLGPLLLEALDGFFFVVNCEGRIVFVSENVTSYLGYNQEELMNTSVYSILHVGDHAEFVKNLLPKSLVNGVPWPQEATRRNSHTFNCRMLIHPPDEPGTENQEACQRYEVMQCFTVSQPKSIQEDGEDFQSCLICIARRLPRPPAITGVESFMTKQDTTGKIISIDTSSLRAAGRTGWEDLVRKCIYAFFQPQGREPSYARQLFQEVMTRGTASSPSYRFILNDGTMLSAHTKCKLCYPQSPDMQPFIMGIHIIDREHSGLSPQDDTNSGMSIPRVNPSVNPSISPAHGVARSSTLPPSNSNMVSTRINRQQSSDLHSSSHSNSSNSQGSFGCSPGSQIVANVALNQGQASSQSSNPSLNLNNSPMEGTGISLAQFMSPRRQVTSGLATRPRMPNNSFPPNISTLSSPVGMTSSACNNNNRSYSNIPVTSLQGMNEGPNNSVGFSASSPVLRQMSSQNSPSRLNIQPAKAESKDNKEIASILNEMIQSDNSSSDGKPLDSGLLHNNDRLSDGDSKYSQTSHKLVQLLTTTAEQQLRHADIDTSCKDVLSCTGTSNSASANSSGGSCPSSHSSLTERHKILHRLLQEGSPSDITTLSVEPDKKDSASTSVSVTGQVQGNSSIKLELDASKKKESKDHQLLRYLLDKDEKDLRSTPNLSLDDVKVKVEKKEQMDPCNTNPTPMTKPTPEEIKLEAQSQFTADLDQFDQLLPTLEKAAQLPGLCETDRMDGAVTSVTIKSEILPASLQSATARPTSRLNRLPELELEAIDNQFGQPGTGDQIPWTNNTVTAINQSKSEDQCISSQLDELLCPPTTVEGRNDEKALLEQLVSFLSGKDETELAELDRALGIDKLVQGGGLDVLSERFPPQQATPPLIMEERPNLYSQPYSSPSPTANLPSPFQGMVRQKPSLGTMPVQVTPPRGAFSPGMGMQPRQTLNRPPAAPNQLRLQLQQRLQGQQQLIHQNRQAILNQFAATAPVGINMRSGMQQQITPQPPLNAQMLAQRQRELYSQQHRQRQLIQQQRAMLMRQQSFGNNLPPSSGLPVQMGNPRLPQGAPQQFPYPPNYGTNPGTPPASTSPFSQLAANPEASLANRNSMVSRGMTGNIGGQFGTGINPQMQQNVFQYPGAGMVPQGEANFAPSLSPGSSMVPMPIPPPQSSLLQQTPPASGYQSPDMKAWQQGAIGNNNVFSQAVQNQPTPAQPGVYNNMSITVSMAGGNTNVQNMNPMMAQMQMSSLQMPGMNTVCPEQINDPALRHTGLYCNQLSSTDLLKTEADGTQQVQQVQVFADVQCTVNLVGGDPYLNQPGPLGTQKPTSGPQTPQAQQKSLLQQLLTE

[13] = biological target: Peroxisome proliferator-activated receptor gamma/Nuclear receptor coactivator 3 (Homo sapiens, UniProt P37231); format: functional;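 further: agonist potency for raising coactivator recruitment to the receptor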
Chain of Peroxisome proliferator-activated receptor gamma/Nuclear receptor coactivator 3 (P37231 whole entry): as the sequence (P37231 whole entry) above
Chain of Peroxisome proliferator-activated receptor gamma/Nuclear receptor coactivator 3 (Q9Y6Q9 whole entry, further chain): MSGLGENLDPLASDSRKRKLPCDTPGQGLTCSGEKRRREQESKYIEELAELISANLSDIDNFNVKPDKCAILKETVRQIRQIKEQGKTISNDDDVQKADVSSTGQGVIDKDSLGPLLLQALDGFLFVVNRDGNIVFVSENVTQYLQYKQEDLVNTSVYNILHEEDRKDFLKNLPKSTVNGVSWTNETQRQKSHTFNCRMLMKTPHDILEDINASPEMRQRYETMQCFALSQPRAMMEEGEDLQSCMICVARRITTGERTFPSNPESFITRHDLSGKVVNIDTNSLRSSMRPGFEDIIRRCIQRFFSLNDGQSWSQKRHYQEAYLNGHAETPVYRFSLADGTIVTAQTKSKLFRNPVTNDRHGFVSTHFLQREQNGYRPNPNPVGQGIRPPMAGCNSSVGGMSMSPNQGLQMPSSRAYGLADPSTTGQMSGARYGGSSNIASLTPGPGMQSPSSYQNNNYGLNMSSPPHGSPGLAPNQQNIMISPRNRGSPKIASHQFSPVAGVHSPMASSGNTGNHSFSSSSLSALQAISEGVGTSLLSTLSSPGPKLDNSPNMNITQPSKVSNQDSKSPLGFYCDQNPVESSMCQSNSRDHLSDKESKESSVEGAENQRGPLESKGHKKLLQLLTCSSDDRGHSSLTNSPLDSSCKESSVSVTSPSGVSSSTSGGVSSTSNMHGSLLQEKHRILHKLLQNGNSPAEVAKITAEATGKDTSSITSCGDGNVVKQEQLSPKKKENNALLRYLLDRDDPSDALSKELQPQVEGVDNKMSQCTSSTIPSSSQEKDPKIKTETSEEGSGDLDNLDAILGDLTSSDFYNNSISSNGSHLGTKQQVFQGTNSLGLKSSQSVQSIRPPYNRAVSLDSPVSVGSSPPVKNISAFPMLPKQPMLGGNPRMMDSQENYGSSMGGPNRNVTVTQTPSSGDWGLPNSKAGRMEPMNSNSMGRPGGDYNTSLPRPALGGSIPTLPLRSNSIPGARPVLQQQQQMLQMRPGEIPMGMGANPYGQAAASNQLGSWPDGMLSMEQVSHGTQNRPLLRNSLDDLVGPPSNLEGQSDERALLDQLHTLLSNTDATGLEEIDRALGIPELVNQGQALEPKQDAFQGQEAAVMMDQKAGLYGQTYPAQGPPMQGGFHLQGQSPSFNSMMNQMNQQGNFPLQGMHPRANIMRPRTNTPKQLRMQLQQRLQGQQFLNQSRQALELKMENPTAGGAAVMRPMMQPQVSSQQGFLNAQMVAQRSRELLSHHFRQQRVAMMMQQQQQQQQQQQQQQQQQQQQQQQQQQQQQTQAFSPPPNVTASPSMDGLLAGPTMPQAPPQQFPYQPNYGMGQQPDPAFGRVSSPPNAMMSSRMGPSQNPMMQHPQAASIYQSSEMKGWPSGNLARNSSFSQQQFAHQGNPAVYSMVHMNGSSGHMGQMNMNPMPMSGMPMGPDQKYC

[14] = inhibitors of firefly luciferase expression or activity, dose response, H4 neuroglioma cells, luminescence (AID 1990); format: functional, cell-based
[15] = Luminescence Cell-Based Dose Response HTS to Identify Inhibitors of 5'UTR Stem-Loop Driven Prion Protein mRNA Translation in H4 Neuroglioblastoma Cells. [Related pubchem assays: 1827 (Project Summary), 1813 (Primary HTS)]; format: functional
[16] = inhibitors of SNCA 5'UTR-driven reporter translation, confirmation, H4 neuroglioma cells, luminescence (AID 1988); format: functional, cell-based
[17] = biological target: T2, DNA repair protein RAD52 homolog (Homo sapiens, UniProt P43351); format: functional, biochemical
T2 sequence (P43351 whole entry): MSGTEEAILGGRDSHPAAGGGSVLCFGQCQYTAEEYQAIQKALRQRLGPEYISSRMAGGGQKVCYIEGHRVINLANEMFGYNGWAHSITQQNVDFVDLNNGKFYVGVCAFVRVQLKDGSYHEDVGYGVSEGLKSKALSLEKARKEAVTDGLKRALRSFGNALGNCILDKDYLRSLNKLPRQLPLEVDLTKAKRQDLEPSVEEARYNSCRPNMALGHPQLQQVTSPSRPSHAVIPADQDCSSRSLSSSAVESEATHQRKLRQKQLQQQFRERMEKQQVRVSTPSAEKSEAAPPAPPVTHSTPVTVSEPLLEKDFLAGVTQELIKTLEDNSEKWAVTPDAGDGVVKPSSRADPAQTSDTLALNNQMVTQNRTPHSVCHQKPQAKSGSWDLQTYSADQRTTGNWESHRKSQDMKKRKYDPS

[18] = inhibitors of intracellular T. cruzi replication, confirmation, NIH3T3 host cells, beta-gal luminescence (AID 2044); format: functional, cell-based;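 further: intracellular parasites grown in NIH/3T3 mouse fibroblasts as host cells; luminescent beta-galactosidase reporter signal from transgenic T. cruzi replicating inside host cells; inhibitors lower the luminescence signal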
[19] = cytotoxicity toward NIH3T3 fibroblasts, dose response, counter-screen, cell-based, ATP luminescence, mouse fibroblasts (AID 2010); format: functional;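 further: cells exposed to compound for about 90 hours before reading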
[20] = biological target: Induced myeloid leukemia cell differentiation protein Mcl-1 (Homo sapiens, UniProt Q07820); format: functional
Chain of Induced myeloid leukemia cell differentiation protein Mcl-1 (Q07820 whole entry): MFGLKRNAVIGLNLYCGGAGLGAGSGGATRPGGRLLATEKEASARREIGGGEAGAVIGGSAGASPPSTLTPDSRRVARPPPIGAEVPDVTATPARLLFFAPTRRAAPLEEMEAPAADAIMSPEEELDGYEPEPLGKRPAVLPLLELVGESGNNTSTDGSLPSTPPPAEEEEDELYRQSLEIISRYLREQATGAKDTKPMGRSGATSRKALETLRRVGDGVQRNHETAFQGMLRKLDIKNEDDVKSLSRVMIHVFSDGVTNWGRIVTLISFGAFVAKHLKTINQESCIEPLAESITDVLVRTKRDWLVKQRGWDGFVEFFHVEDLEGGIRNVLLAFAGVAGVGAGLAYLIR

Bcl-2-like protein 10 = biological target: T3, Bcl-2-like protein 10 (Homo sapiens, UniProt Q9HD36); assay: displacers of TR3 peptide from Bcl-B, primary screen, selectivity assay for Bfl-1 inhibitor project, biochemical, fluorescence polarization, FITC-TR3 peptide (AID 748);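 further: fluorescence polarization from a fluorescein-labelled TR3 peptide binding purified Bcl-B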
T3 sequence (Q9HD36 whole entry): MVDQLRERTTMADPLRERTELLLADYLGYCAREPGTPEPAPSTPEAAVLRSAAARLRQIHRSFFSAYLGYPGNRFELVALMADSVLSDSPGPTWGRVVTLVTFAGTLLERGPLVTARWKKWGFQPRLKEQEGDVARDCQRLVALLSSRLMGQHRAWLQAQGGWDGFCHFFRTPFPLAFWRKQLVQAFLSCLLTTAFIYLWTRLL

Cytochrome P450 2C9 = Cytochrome P450 2C9 (Homo sapiens, UniProt P11712)
fMet-Leu-Phe receptor = biological target: T4, fMet-Leu-Phe receptor (Homo sapiens, UniProt P21462); assay: FPR ligands, dose response (AID 519); format: functional
T4 sequence (P21462 whole entry): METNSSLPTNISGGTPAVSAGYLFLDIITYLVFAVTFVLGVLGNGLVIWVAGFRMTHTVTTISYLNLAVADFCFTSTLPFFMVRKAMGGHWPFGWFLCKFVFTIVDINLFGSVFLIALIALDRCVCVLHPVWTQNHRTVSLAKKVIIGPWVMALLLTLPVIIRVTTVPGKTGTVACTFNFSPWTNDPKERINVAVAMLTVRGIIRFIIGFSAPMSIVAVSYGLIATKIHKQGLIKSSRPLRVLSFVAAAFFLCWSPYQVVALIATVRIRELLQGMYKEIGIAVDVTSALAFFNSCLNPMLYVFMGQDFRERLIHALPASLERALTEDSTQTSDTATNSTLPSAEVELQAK

[21] = biological target: T5, Rac GTPase-activating protein 1 (Homo sapiens, UniProt Q9H0H5); assay: MgcRacGAP GTPase-activating activity inhibitors, confirmation, biochemical, ADP Hunter fluorescence, primary and confirmatory (AID 624330); format: functional
T5 sequence (Q9H0H5 whole entry): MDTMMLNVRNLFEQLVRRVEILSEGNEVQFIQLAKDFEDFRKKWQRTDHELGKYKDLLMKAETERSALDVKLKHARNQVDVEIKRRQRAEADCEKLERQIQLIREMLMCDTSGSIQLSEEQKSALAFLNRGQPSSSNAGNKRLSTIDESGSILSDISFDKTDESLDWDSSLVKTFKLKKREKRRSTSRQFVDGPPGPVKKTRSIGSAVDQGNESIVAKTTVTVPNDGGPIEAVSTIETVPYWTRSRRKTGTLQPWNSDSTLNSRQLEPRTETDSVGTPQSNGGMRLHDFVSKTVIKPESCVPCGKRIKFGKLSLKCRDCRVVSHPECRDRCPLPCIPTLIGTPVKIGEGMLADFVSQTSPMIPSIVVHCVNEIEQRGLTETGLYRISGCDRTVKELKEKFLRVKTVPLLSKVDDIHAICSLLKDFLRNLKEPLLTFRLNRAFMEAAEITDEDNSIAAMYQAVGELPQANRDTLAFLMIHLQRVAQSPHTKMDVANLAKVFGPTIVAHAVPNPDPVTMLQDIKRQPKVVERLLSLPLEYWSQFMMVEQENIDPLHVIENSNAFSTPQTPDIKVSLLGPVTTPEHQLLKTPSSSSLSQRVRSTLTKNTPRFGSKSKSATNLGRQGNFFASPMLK

[22] = biological target: T6, Carboxy-terminal domain RNA polymerase II polypeptide A small phosphatase 1 (Homo sapiens, UniProt Q9GZU7); assay: inhibitors of CTDSP1, concentration-response testing, biochemical assay, absorbance-based, actives from ultra-high-throughput screening (AID 540297); format: functional
T6 sequence (Q9GZU7 whole entry): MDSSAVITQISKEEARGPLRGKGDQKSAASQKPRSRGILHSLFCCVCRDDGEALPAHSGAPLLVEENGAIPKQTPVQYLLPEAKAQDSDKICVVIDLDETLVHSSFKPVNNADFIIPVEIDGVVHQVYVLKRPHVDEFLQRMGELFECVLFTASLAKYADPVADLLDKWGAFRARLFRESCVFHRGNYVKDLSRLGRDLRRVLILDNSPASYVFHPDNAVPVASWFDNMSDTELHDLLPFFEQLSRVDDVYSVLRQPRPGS

[23] = P. falciparum 3D7-ScDHODH growth inhibitors, dose response, SYBR Green, dry powder samples (AID 1159570); format: functional, cell-based;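 further: parasite growth measured after 72 hours of compound exposure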
[24] = P. falciparum Dd2 growth inhibitors, dose response, SYBR Green, cherry-picked samples (AID 1159567); format: functional, cell-based
[25] = P. falciparum Dd2 growth inhibitors, dose response, SYBR Green, dry powder samples (AID 1159566); format: functional, cell-based;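 further: potency for growth inhibition with lower SYBR green DNA signal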
[26] = P. falciparum ATP4 D1247Y mutant growth inhibitors, dose response, NITD609-resistant line, SYBR Green, dry powder (AID 1159571); format: functional, cell-based;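 further: parasites synchronized at ring stage by sorbitol before testing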
[27] = HepG2 cell cytotoxicity, dose response, cytotoxicity control, cherry-picked samples (AID 1159577); format: functional, cell-based

Chain of Cytochrome P450 3A4 (P08684 whole entry): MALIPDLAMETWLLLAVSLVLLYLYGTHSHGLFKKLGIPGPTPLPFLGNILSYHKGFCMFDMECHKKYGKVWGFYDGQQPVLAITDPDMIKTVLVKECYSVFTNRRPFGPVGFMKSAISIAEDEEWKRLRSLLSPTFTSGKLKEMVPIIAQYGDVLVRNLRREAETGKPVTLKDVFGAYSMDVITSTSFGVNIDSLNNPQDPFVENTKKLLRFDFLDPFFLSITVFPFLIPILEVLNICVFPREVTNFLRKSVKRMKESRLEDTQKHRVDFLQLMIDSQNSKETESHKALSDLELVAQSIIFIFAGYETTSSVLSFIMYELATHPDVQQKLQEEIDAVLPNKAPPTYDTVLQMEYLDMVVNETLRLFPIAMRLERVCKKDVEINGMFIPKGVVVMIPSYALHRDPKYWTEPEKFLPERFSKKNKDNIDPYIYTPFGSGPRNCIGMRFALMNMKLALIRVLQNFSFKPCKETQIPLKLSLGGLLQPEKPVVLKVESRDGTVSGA

N#CCC(=O)NC(=O)NCC1CC1
AC50 (Cytochrome P450 3A4): 0.0126 µM (inconclusive)

COc1ccc(OC)c(-c2csc(NC(=O)Cn3[nH]c(=O)c4ccccc4c3=O)n2)c1
IC50 [1]: 50 µM (inactive) | IC50 [2]: > 66.6 µM (inactive) | IC50 [3]: 100 µM (inactive) | AC50 [4]: 28 µM (active)

Cc1ncsc1C(=O)Nc1nc2c(s1)CCCC2
EC50 (BJ [5]): 18 µM (active) | EC50 (BJ [6]): 20 µM (active) | EC50 [7]: 3.81 µM (active) | EC50 [8]: 3.99 µM (active) | EC50 (BJ [9]): > 150 µM (not active) | EC50 [10]: 20.9 µM (inconclusive)

CCc1ccc(N(C(=O)c2csnn2)C(C(=O)NC(C)(C)C)c2cccnc2)cc1 (centres undefined)
EC50 [11]: > 79.4 µM (not active) | EC50 [12]: > 79.4 µM (not active) | EC50 [13]: > 79.4 µM (not active)

CCn1cc(S(=O)(=O)Nc2ccccc2C(F)(F)F)cn1
EC50 [11]: > 79.4 µM (not active) | EC50 [12]: > 79.4 µM (not active) | EC50 [13]: > 79.4 µM (not active)

CN1CCN(C2Cc3cc(Cl)ccc3Sc3cc(F)ccc32)CC1 (centres undefined)
EC50 [14]: > 120 µM (not active) | EC50 [15]: > 120 µM (not active) | EC50 [16]: 8.62 µM (active) | AC50 [17]: 18.1 µM (active)

c1nc[nH]n1
AC50 (Cytochrome P450 3A4): 31.6 µM (inconclusive)

CN(C)CCCN(C(=O)c1ccc(N2C(=O)CCC2=O)cc1)c1nc2c(F)cccc2s1
EC50 [11]: > 79.4 µM (not active) | EC50 [12]: > 79.4 µM (not active) | EC50 [13]: > 79.4 µM (not active) | EC50 [18]: 0.471 µM (active) | EC50 [19]: > 30 µM (not active)

O=C(COC(=O)c1ccc2c(c1)C(=O)N(Cc1ccncc1)C2=O)Nc1ccccc1[N+](=O)[O-]
IC50 [20]: 4.84 µM (active)

Cc1ccc(-n2nc3ccc(NC(=O)c4ccc5c(c4)OCO5)cc3n2)cc1
IC50 (Bcl-2-like protein 10): 73.3 µM (inactive) | AC50 (Cytochrome P450 2C9): 4.47 µM (inconclusive)

COC(=O)C1=[N+]([O-])OC(C(=O)OC)C1c1c[nH]c2ccccc12 (centres undefined)
Ki (fMet-Leu-Phe receptor): > 66.7 µM (inactive)

COC(=O)[C@@H]1C[C@H]2CC[C@H](O)C[C@H]2N1CC1CC1
AC50 (Cytochrome P450 3A4): 20 µM (inconclusive)

CCN1CCN(c2ccc(N)c(C)c2)CC1
IC50 [21]: 48.3 µM (active) | AC50 [17]: 3.46 µM (active)

COc1ccc(S(=O)(=O)N2CCOCC2)cc1NC(=O)CSc1n[nH]c(C(C)C)n1
AC50 [4]: > 30 µM (inactive)

COc1ccc(S(=O)(=O)N2CCOc3ccccc32)cc1
EC50 (BJ [5]): 14 µM (active) | EC50 (BJ [6]): 55.9 µM (inconclusive) | EC50 (BJ [9]): 10.3 µM (inconclusive) | EC50 [10]: 13.1 µM (inconclusive)

CCN(C(=O)Cc1c(C(=O)O)[nH]c2ccccc12)c1cc(OC)ccc1OC
Ki (fMet-Leu-Phe receptor): 18.4 µM (inactive)

CCN(CC)C(=O)CSc1nc2ncccc2[nH]1
EC50 [11]: > 79.4 µM (not active) | EC50 [12]: > 79.4 µM (not active) | EC50 [13]: > 79.4 µM (not active)

O=C(Nc1ccc(Nc2ccccc2)cc1)c1ccc(Br)o1
Ki (fMet-Leu-Phe receptor): > 66.7 µM (inactive)

CSc1ccccc1NC(=O)COC(=O)CCC(=O)c1ccc(F)cc1
AC50 [4]: > 30 µM (inactive)

O=C(N/N=C/c1ccco1)c1cccc(N2Cc3ccccc3C2)c1
IC50 [20]: 3.75 µM (active) | IC50 [22]: 4.27 µM (active)

C[C@H](CO)N1C[C@H](C)[C@H](CN(C)S(=O)(=O)c2ccc([N+](=O)[O-])cc2)OCc2ccccc2-c2c(n(C)c3ccccc23)C1=O
AC50 [23]: 0.476 µM (active) | AC50 [24]: 1 µM (active) | AC50 [25]: 0.305 µM (active) | AC50 [26]: 0.308 µM (active)

CCc1csc(N2[C@H](C#N)[C@H](c3ccccc3-c3ccc(F)cc3)[C@H]2CO)n1
AC50 [23]: 1.13 µM (active) | AC50 [24]: 2.65 µM (active) | AC50 [25]: 0.989 µM (active) | AC50 [26]: 5.46 µM (active)

COc1ccc2c3c([nH]c2c1)[C@@H](CO)N(C(=O)CN(C)C)CC31CN(CC2CCCC2)C1
AC50 [24]: 2.12 µM (active) | AC50 [27]: 13.8 µM (active)

Nc1ccc(-c2ccc(N)cc2)cc1 [BENZIDINE]
IC50 [21]: 7.39 µM (active) | AC50 (Cytochrome P450 3A4): 25.1 µM (inconclusive)
